Reference: ChEMBL document CHEMBL1134048, “Novel antitumor artemisinin derivatives targeting G1 phase of the cell cycle” (Bioorg Med Chem Lett, 2001)
Values belong to the compound of their own block, whether it stands above or below them.

Experiments:
[1] = system: A549; assay: In vitro inhibitory concentration required against human lung A549 carcinoma cells proliferation; format: functional, cell-based
[2] = system: P388; assay: Percent of cells in G1 phase of cell cycle, was determined after 21 hrs of incubation of P388 cells; format: functional, Mus musculus
[3] = system: P388; assay: Ability to induce apoptosis after 21 hrs of incubation of P388 cells; format: functional, cell-based; conditions: Mus musculus
[4] = system: P388; assay: Percent of cells in sub-G1 phase (apoptotic cells) of cell cycle was determined after 21 hrs of incubation of P388 cells; format: functional, Mus musculus
[5] = system: NIH3T3; assay: In vitro inhibitory concentration required against NIH3T3 cells proliferation; format: functional, cell-based; conditions: Mus musculus
[6] = system: P388; assay: In vitro inhibitory concentration required against murine P388 leukemic cells proliferation; format: functional, cell-based; conditions: Mus musculus
[7] = system: P388; assay: Percent of cells in G1 phase of cell cycle was determined after 21 hrs of incubation of P388 cells; format: functional, Mus musculus

SMILES: C[C@@H]1CCC2[C@@H](C)[C@@H](O[C@@H](C#N)c3ccc(Br)cc3)O[C@@H]3O[C@]4(C)CCC1[C@@]23OO4 (stereo partly specified)
- IC50 [1]: 47 nM
- G1 [2]: 62%
- Concentration [3]: 25 nM
- Apoptosis [4]: 49%
- IC50 [5]: 3.05 mM
- IC50 [6]: 12 nM

- IC50 [1]: 42000 nM
- IC50 [6]: 24200 nM
SMILES: C[C@@H]1CCC2[C@@H](C)[C@@H](OC(C#N)c3ccc(Br)cc3)O[C@@H]3O[C@]4(C)CCC1[C@@]23O4 (stereo partly specified)

- IC50 [1]: 18 nM
- IC50 [6]: 2 nM
SMILES: CC[C@]1(O)C[C@H]2CN(CCc3c([nH]c4ccccc34)[C@@](C(=O)OC)(c3cc4c(cc3OC)N(C=O)[C@H]3[C@@](O)(C(=O)OC)[C@H](OC(C)=O)[C@]5(CC)C=CCN6CC[C@]43[C@@H]65)C2)C1 [VINCRISTINE]

SMILES: C[C@@H]1CCC2[C@@H](C)[C@@H](O[C@H](C#N)c3ccc(Br)cc3)O[C@@H]3O[C@]4(C)CCC1[C@@]23OO4 (stereo partly specified)
- IC50 [1]: 39 nM
- G1 [2]: 63%
- Concentration [3]: 25 nM
- Apoptosis [4]: 51%
- IC50 [5]: 5.12 mM
- IC50 [6]: 11 nM

SMILES: C[C@@H]1CCC2[C@@H](C)[C@@H](O[C@@H](C#N)c3ccccc3)O[C@@H]3O[C@]4(C)CCC1[C@@]23OO4 (stereo partly specified)
- IC50 [1]: 1230 nM
- G1 [2]: 67%
- Concentration [3]: 500 nM
- Apoptosis [4]: 53%
- IC50 [6]: 238 nM

SMILES: C[C@@H]1CCC2[C@@H](C)[C@@H](O[C@H](C#N)c3ccccc3)O[C@@H]3O[C@]4(C)CCC1[C@@]23OO4 (stereo partly specified)
- IC50 [1]: 662 nM
- G1 [7]: 61%
- Concentration [3]: 100 nM
- Apoptosis [4]: 45%
- IC50 [6]: 48 nM

SMILES: C[C@@H]1CCC2[C@@H](C)[C@@H](OCC#N)O[C@@H]3O[C@]4(C)CCC1[C@@]23OO4 (stereo partly specified)
- IC50 [1]: 79400 nM
- G1 [2]: 65%
- Concentration [3]: 10000 nM
- Apoptosis [4]: 7%
- IC50 [6]: 1860 nM
